{
  "source": "patent US10351915B2",
  "about": "(Berg LLC, priority 2009, dated 2019)",
  "key": {"[1]": {"tested_on": "Pyruvate Dehydrogenase beta (PDH-E1)", "assay": "Western blot, Pyruvate Dehydrogenase Beta levels", "type": "cell-based, human", "protocol": "The pyruvate kinase blots were stripped by incubating for 30 minutes with methanol, followed by two 10 minute washes with TBS-T, then 30 minutes of incubation with Stripping buffer at 50 deg C., and followed by two washes with 100 ml or more of TBS-T for 30′ each. The 2 blots were scanned in laser scanner to check for complete stripping. After making sure stripping of the antibody and the ECF reagent has worked, the blots were activated with methanol for 5 seconds, washed with water for 5 minutes, and TBST for 15 minutes. The blots are blocked for 1 hour with 5% blocking reagent in TBS-T at room temperature and then washed 3 times with TBS-T (1×-15′; 2×5′ each) and probed with the antibody for Pyruvate Dehydrogenase in 5% BSA (ABNOVA catalog # H00005162-M03) at 1:500 dilutions) overnight at 4 deg C. with shaking. After the overnight incubation with primary antibody for Pyruvate Dehydrogenase, the membranes were washed 3 times with TBS-T (1×-15′; 2×5′ each) and probed with the secondary antibody (antimouse; 1:10,000 dilution) for 1 h on the orbital tilting shaker at room temperature. […]\nThe levels of LDH and PDH were determined by probing the blots successively with primary antibodies for LDH and PDH, essentially as described above. […]"}, "[2]": {"tested_on": "SDH Subunit B", "assay": "Western blot, Succinate Dehydrogenase B in mitochondrial preparations", "type": "cell-based", "details": "mitochondrial preparations of cancer cells", "protocol": "The above blots were stripped by incubating for 30 minutes with methanol, followed by two 10 minute washes with TBS-T, then 30 minutes of incubation with Stripping buffer at 50 deg C., and followed by two washes with 100 ml or more of TBS-T for 30′ each. The blots were scanned in laser scanner to check for complete stripping. The blots were activated with methanol for 5 seconds, washed with water for 5 minutes, and TBST for 15 minutes. The blots were blocked for 1 hour with 5% blocking reagent in TBS-T at room temperature and then washed 3 times with TBS-T (1×-15′; 2×5′ each) and probed with the primary antibody for PKM2, SDHB or SDHC in 5% BSA in TBS-T by incubation overnight at 4 deg C. with gentle shaking. The primary antibody for SDHC (ABNOVA H00006391-M02; antimouse) was at 1:500 dilution. The primary antibody for SDHB was from Abcam ab4714-200; antimouse; at 1:1000 dilution. The primary antibody for Pyruvate Kinase M2 (PKM2) was from Novus Biologicals H00005315-D0IP; antirabbit; at 1:500 dilution. After incubation with primary antibodies, the membranes were washed 3 times with TBS-T (1×-15′; 2×5′ each) and probed with the secondary antibody (SDHB & C antimouse; and PKM2 antirabbit; 1:10,000 dilution) for 1 h on the orbital tilting shaker at room temperature. […]"}},
  "data": [
    {"smiles": "COC1=C(OC)C(=O)C(C/C=C(\\C)CC/C=C(\\C)CC/C=C(\\C)CC/C=C(\\C)CC/C=C(\\C)CC/C=C(\\C)CC/C=C(\\C)CC/C=C(\\C)CC/C=C(\\C)CCC=C(C)C)=C(C)C1=O", "note": "[Q10, Coenzyme Q10]", "values": [
      {"measurement": "Pyruvate Dehydrogenase Beta Normalized Volume (48 h)", "setting": "[1]; HepG2, 5g glucose, 48 h, amount 50", "value": 123},
      {"measurement": "Pyruvate Dehydrogenase Beta Normalized Volume (24 h)", "setting": "[1]; HepG2, 22G glucose, 24 h, amount 100", "value": 340},
      {"measurement": "SDH protein levels", "setting": "[2]", "value": "increase SDH protein levels"}
    ]}
  ]
}
